Source: patent US20070275403A1, “Diagnostic methods for determining treatment” (priority 2006, published 2007)
Several values for one entry are separate records, joined by “and”; a condition that tells them apart may be missing. Equal entries are not always repeated. Where two headings read alike, the source gives them in different places.

Assays:
[1] = system: NSCLC; conditions: patients previously screened for EGFR expression; cited from earlier work
[2] = system: NSCLC; conditions: phase III trial; cited from earlier work
[3] = system: NSCLC patients; experiment: Overall survival (Kaplan-Meier) of NSCLC patients in the gefitinib expanded access trial, by molecular subgroup; type: in vivo, human
Protocol: (§1) Specimens. […] Chart review and study analyses were approved by the RUMC Institutional Review Board. The diagnosis of NSCLC in the archival material was obtained from pathology reports and confirmed by histologic evaluation before further analysis. Age, gender, smoking status and disease grade were established from chart review and patient report at registration. Smoking status was defined by lifetime consumption of <100 cigarettes. Response was assessed according to RECIST criteria of measurable and non-measurable lesions. […] Progressive disease was defined by relapse within 70 days of treatment.
(§2) In Situ Hybridization. For copy number analyses by FISH, EGFR and centromere 7 (CEN7) probes were utilized to examine EGFR/cell, CEN7/cell and EGFR/CEN 7. A probe targeting α satellite repeat sequences near the centromere of chromosome 7 was used to indicate CEN 7 copy number (SpectrumGreen™ CEP® 7, Abbott Molecular Inc.). Specimen slides were prepared using either the Vysis Paraffin Pretreatment II or III kits (Abbott Molecular Inc.). The prepared specimen slides were hybridized with two-color FISH probe solutions (SpectrumOrange™ LSI® EGFR, Spectrum-Green CEP 7; Abbott Molecular Inc.) in a HYBrite™ automated co-denaturation oven (Abbott Molecular Inc.). The slides were placed on the oven surface and 10 μL probe solution was layered over the tissue section. A cover slip was applied over the probe solution and sealed to the slide with rubber cement. After denaturation at 73° C. for 5 minutes, the probe was hybridized at 37° C. for 16-18 hr. Following hybridization and removal of the rubber cement seal, the slides were placed in room-temperature 2×SSC (SSC=0.3 M NaCl, 15 mM sodium citrate), 0.3% Nonidet P40 (NP40) for 2-5 min to detach the cover slips. The slides were then immersed in 73° C. 2×SSC, 0.3% NP40 for 2 min to remove nonspecifically bound probe and then were allowed to dry in the dark. DAPI I antifade solution (Abbott Molecular Inc.) was applied to the specimen for visualization of the nuclei. […] Over-digested or under-digested specimens were reprocessed as described previously.
(§3) Typically, 30-90 (median 80) cells were enumerated in each specimen. The mean number of signals per cell was calculated by totaling the number of signals from each cell for EGFR and CEN 7, and dividing by the number of cells counted to provide EGFR/cell and CEN 7/cell, respectively. EGFR/cell was divided by CEN 7/cell signals per cell to yield EGFR/CEN7. Other FISH parameters used in developing selection criteria are defined as follows. The EGFR % gain or CEN 7% gain was calculated as the percentage of cells with more than two EGFR or CEN 7 signals, respectively. […] When a slide was counted multiple times, counts were combined and used for recalculating the ratios and % gain.
(§4) Optimal cutoff points for defining high ratios or high % gains were selected by first generating cutoffs from the mean minus 1.5 standard deviations to the mean plus 3.5 standard deviations, in 0.1 standard deviation increments, for each parameter (ratios and % gains), using the mean and standard deviations of the non responding patients. Each high and low ratios and % gains at each cutoff were compared with objective response and survival (greater than or less than 1 year survival) in contingency tables. Cutoffs with the lowest chi-square probabilities were selected for further analysis.
Cutpoints were also assigned to indicate loss of chromosome 7, either monosomy or nullisomy.
(§5) Immunohistochemistry. Paraffin sections (5 μm, freshly cut) were deparaffinized and rehydrated by standard technique. A microwave antigen retrieval method was then carried out in citrate buffer. The tissue was stained using a Ventana ES Histo-stainer (Ventana Medical Systems, Tucson, Ariz.) using supplied diaminobenzidine and avidin-biotin conjugate immunoperoxidase chemistry.

[4] = system: NSCLC patients; experiment: Objective response (RECIST) of NSCLC patients in the gefitinib expanded access trial, by demographic and molecular subgroup; type: in vivo, human
Protocol: as §1, §2, §3, §4, §5
Immunostaining frequency of all tumor cells on each slide was estimated on a scale of 0 to 4 without knowledge of clinical patient data.

[5] = system: NSCLC; conditions: phase II trials; cited from earlier work

Compound: C#Cc1cccc(Nc2ncnc3cc(OCCOC)c(OCCOC)cc23)c1 [Erlotinib, erlotinib]
- response rate [1]: 12.3%

Compound: COc1cc2ncnc(Nc3ccc(F)c(Cl)c3)c2cc1OCCCN1CCOCC1 [gefitinib]
- response rate [2]: 8-13%
- survival benefit [2]: no significant survival benefit
- Median Survival ([3]; CEN 7 % ≧4 copies <52%): 6.9 Months
- Median Survival ([3]; CEN7 % ≧4 copies ≧52%, pAKT+): 39.4 months
- Median Survival ([3]; CEN7 % ≧4 copies, pAKT: Any negative): 5.9 months
- Median Survival ([3]; CEN 7/cell <3.6 (non-polysomy)): 6.0 Months
- Median Survival ([3]; CEN 7/cell <3.6 and >2.0 (“normal”)): 5.8 Months
- Median Survival ([3]; CEN 7/cell >3.6 or <2.0 (aneusomy)): 15.3 Months
- Median Survival ([3]; CEN 7/cell ≧3.6 (polysomy)): 16.2 Months
- Median Survival ([3]; CEN 7/cell, pAKT: Any negative): 5.9 months
- Median Survival ([3]; CEN 7 ≧3.6 (polysomy), pAKT+): 24.5 months
- Median Survival ([3]; EGFR % gain <75%): 7.9 Months
- Median Survival ([3]; EGFR % gain ≧75%): 9.4 Months
- Median Survival ([3]; EGFR % gain ≧75% cells and pAKT+): 24.5 months
- Median Survival ([3]; EGFR % gain, pAKT: Any negative): 6.6 months
- Median Survival ([3]; EGFR Expression, IHC Not detected): 8.5 Months
- Median Survival ([3]; EGFR Expression, IHC Present): 7.1 Months
- Median Survival ([3]; EGFR/CEN 7 % gain <34%): 6.0 Months
- Median Survival ([3]; EGFR/CEN 7 % gain ≧3.4%): 10.3 Months
- Median Survival ([3]; EGFR/CEN7 % gain, PTEN: Any negative): 6.6 months
- Median Survival ([3]; PTEN Expression, IHC Not detected): 5.9 Months
- Median Survival ([3]; PTEN Expression, IHC Present): 9.3 Months
- Median Survival ([3]; pAKT Expression, IHC Not detected): 5.8 Months
- Median Survival ([3]; pAKT Expression, IHC Present): 10.5 Months
- Objective Response (partial and complete, RECIST), number of patients (%) ([4]; 250 mg daily gefitinib, Total, 81 patients): 12 (15) %
- Objective Response, number of patients (%) ([4]; 250 mg daily, Age <60 years): 8 (13) %
- Objective Response, number of patients (%) ([4]; 250 mg daily, Age ≧60 years): 4 (21) %
- Objective Response, number of patients (%) ([4]; 250 mg daily, Gender Female): 7 (16) %
- Objective Response, number of patients (%) ([4]; 250 mg daily, Gender Male): 5 (14) %
- Objective Response, number of patients (%) ([4]; 250 mg daily, Histopathological subtype Bronchoalveolar, adenocarcinoma): 10 (18) %
- Objective Response, number of patients (%) ([4]; 250 mg daily, Histopathological subtype Other): 2 (8) %
- Objective Response, number of patients (%) ([4]; 250 mg daily, Never smoked): 7 (58) %
- Objective Response, number of patients (%) ([4]; 250 mg daily, Performance status 0 to 1): 6 (13) %
- Objective Response, number of patients (%) ([4]; 250 mg daily, Performance status 2 to 4): 6 (18) %
- Objective Response, number of patients (%) ([4]; 250 mg daily, Prior chemotherapy None): 2 (14) %
- Objective Response, number of patients (%) ([4]; 250 mg daily, Prior chemotherapy One): 7 (18) %
- Objective Response, number of patients (%) ([4]; 250 mg daily, Prior chemotherapy Two or more): 3 (5) %
- Objective Response, number of patients (%) ([4]; 250 mg daily, Smoking status Yes): 5 (7) %
- Overall response ([4]; 81 patients, 250 mg daily gefitinib): 15%
- Objective Response, number of patients (%) ([4]; CEN 7/cell <3.6): 7 (11) %
- Objective Response, number of patients (%) ([4]; CEN 7/cell <3.8): 7 (11) %
- Objective Response, number of patients (%) ([4]; CEN 7/cell <3.8 and >2.0 (“normal”)): 7 (13) %
- Objective Response, number of patients (%) ([4]; CEN 7/cell <4): 7 (11) %
- Objective Response, number of patients (%) ([4]; CEN 7/cell >3.8 or <2.0 (aneusomy)): 5 (19) %
- Objective Response, number of patients (%) ([4]; CEN 7/cell ≧3.6): 5 (28) %
- Objective Response, number of patients (%) ([4]; CEN 7/cell ≧3.8): 5 (31) %
- Objective Response, number of patients (%) ([4]; CEN 7/cell ≧4): 5 (36) %
- Objective Response, number of patients (%) ([4]; EGFR % gain <75%): 5 (9) %
- Objective Response, number of patients (%) ([4]; EGFR % gain ≧75%): 7 (29) %
- Objective Response, number of patients (%) ([4]; EGFR IHC 0): 3 (9) %
- Objective Response, number of patients (%) ([4]; EGFR IHC 1+ to 4+): 9 (20) %
- Objective Response, number of patients (%) ([4]; EGFR/CEN 7 % gain <34%): 3 (7) %
- Objective Response, number of patients (%) ([4]; EGFR/CEN 7 % gain ≧34%): 9 (23) %
- Objective Response, number of patients (%) ([4]; EGFR/CEN 7 <1): 1 (5) %
- Objective Response, number of patients (%) ([4]; EGFR/CEN 7 ≧1): 11 (19) %
- Objective Response, number of patients (%) ([4]; EGFR/cell ≦6 (FISH)): 7 (10) %
- Objective Response, number of patients (%) ([4]; EGFR/cell ≧6 (FISH)): 5 (46) %
- Objective Response, number of patients (%) ([4]; PTEN IHC Absent, 73 patients analyzed): 3 (7) %
- Objective Response, number of patients (%) ([4]; PTEN IHC Present (1+ to 4+), 73 patients analyzed): 8 (30) %
- patients with complete response ([4]; of 81 patients): 2 patients
- patients with partial response ([4]; of 81 patients): 10 patients
- patients with stable disease ([4]; of 81 patients): Thirty-six
- Objective Response, number of patients (%) ([4]; pAKT IHC Absent, 73 patients analyzed): 4 (10) %
- Objective Response, number of patients (%) ([4]; pAKT IHC Present (1+ to 4+), 73 patients analyzed): 7 (21) %
- response rate [5]: 18.4% and 11.8%
